What was measured:
Mus musculus [1] = experiment: Neurotoxicity in Mus musculus albino CF1 (mouse) assessed as motor impairment at 300 mg/kg, ip up to 4 hr; format: toxicity, organism-based; set-up: dose 300 mg/kg, route intraperitoneal; conditions: in vivo
[2] = Octanol-phosphate buffer partition coefficient, log P of the compound after 24 hr; format: physicochemical
Mus musculus [3] = experiment: Neurotoxicity in Mus musculus albino CF1 (mouse) assessed as motor impairment at 100 mg/kg, ip after 0.5 hr; format: toxicity, organism-based; set-up: dose 100 mg/kg, route intraperitoneal; conditions: in vivo
Mus musculus [4] = experiment: Anticonvulsant activity in Mus musculus albino CF1 (mouse) assessed as protection against 6 Hz psychomotor seizure at 100 mg/kg, ip after 4 hr; format: functional; conditions: route intraperitoneal
Mus musculus [5] = experiment: Neurotoxicity in Mus musculus albino CF1 (mouse) assessed as motor impairment at 100 mg/kg, ip after 4 hr; format: toxicity, organism-based; set-up: dose 100 mg/kg, route intraperitoneal; conditions: in vivo
Mus musculus [6] = experiment: Neurotoxicity in Mus musculus albino CF1 (mouse) assessed as motor impairment at 100 mg/kg, ip after 2 hr; format: toxicity, organism-based; set-up: dose 100 mg/kg, route intraperitoneal; conditions: in vivo
Mus musculus [7] = experiment: Neurotoxicity in Mus musculus albino CF1 (mouse) assessed as motor impairment at 100 mg/kg, ip after 1 hr; format: toxicity, organism-based; set-up: dose 100 mg/kg, route intraperitoneal; conditions: in vivo
Mus musculus [8] = experiment: Anticonvulsant activity in Mus musculus albino CF1 (mouse) assessed as protection against 6 Hz psychomotor seizure at 100 mg/kg, ip after 0.5 hr; format: functional; conditions: route intraperitoneal
Mus musculus [9] = experiment: Neurotoxicity in Mus musculus albino CF1 (mouse) assessed as motor impairment at 100 mg/kg, ip after 0.25 hr; format: toxicity, organism-based; set-up: dose 100 mg/kg, route intraperitoneal; conditions: in vivo
Mus musculus [10] = experiment: Anticonvulsant activity in Mus musculus albino CF1 (mouse) assessed as protection against 6 Hz psychomotor seizure at 100 mg/kg, ip after 0.25 hr; format: functional; conditions: route intraperitoneal
Mus musculus [11] = experiment: Anticonvulsant activity in Mus musculus albino CF1 (mouse) assessed as protection against 6 Hz psychomotor seizure at 100 mg/kg, ip after 2 hr; format: functional; conditions: route intraperitoneal
Mus musculus [12] = experiment: Anticonvulsant activity in Mus musculus albino CF1 (mouse) assessed as protection against 6 Hz psychomotor seizure at 100 mg/kg, ip after 1 hr; format: functional; conditions: route intraperitoneal

Row | Structure (SMILES) | Activity (Mus musculus [1]) | logP at 24 h [2] | Activity (Mus musculus [3]) | Activity (Mus musculus [4]) [%] | Activity (Mus musculus [5]) | Activity (Mus musculus [6]) | Activity (Mus musculus [7]) | Activity (Mus musculus [8]) [%] | Activity (Mus musculus [9]) | Activity (Mus musculus [10]) [%] | Activity (Mus musculus [11]) [%] | Activity (Mus musculus [12]) [%]
1 | Fc1ccc(Oc2ccc(/C=N/Nc3nc4ccccc4s3)cc2)cc1 | Non-toxic | 5 | – | – | – | – | – | – | – | – | – | –
2 | O=C(CSc1nc2ccccc2s1)N/N=C1\C(=O)Nc2ccccc21 | Non-toxic | 3.2 | Non-toxic | 0 | Non-toxic | Non-toxic | Non-toxic | 75 | Non-toxic | 0 | 0 | 0
3 | C(=N\Nc1nc2ccccc2s1)/c1ccc(Oc2ccccc2)cc1 | Non-toxic | 5.2 | Non-toxic | 0 | Non-toxic | Non-toxic | Non-toxic | 25 | Non-toxic | 0 | 50 | 0
4 | O=[N+]([O-])c1ccc(Oc2ccc(/C=N/Nc3nc4ccccc4s3)cc2)cc1 | Non-toxic | 5.1 | Non-toxic | 0 | Non-toxic | Non-toxic | Non-toxic | 25 | Non-toxic | 50 | 0 | 50
5 | Cc1ccc(Oc2ccc(/C=N/Nc3nc4ccccc4s3)cc2)cc1 | Non-toxic | 5.4 | Non-toxic | 0 | Non-toxic | Non-toxic | Non-toxic | 25 | Non-toxic | 25 | 0 | 0
6 | Clc1ccc(Oc2ccc(/C=N/Nc3nc4ccccc4s3)cc2)cc1 | Non-toxic | 5.6 | Non-toxic | 0 | Non-toxic | Non-toxic | Non-toxic | 50 | Non-toxic | 0 | 25 | 0
7 | Brc1ccc(Oc2ccc(/C=N/Nc3nc4ccccc4s3)cc2)cc1 | Non-toxic | 5.5 | Non-toxic | 0 | Non-toxic | Non-toxic | Non-toxic | 50 | Non-toxic | 0 | 50 | 25
8 | Cc1cc(Oc2ccc(/C=N/Nc3nc4ccccc4s3)cc2)ccc1Cl | Non-toxic | 5.5 | Non-toxic | 0 | Non-toxic | Non-toxic | Non-toxic | 0 | Non-toxic | 25 | 0 | 0
9 | C(=N\Nc1nc2ccccc2s1)/c1ccc(Oc2ccc3ccccc3c2)cc1 | Non-toxic | 5.6 | Non-toxic | 0 | Non-toxic | Non-toxic | Non-toxic | 0 | Non-toxic | 25 | 50 | 25
10 | C(=N\Nc1nc2ccccc2s1)/c1ccc(Oc2ccc3c(c2)OCO3)cc1 | Non-toxic | 5 | Non-toxic | 0 | Non-toxic | Non-toxic | Non-toxic | 25 | Non-toxic | 0 | 0 | 0
11 | O=C1Nc2ccccc2/C1=N/Nc1nc2ccccc2s1 | Non-toxic | 3.2 | Non-toxic | 0 | Non-toxic | Non-toxic | Non-toxic | 0 | Non-toxic | 0 | 25 | 25
12 | O=C(CSc1nc2ccccc2s1)N/N=C/c1ccc(Oc2ccccc2)cc1 | Non-toxic | 5.6 | Non-toxic | 0 | Non-toxic | Non-toxic | Non-toxic | 25 | Non-toxic | 50 | 0 | 50
13 | O=C(CSc1nc2ccccc2s1)N/N=C/c1ccc(Oc2ccc([N+](=O)[O-])cc2)cc1 | Non-toxic | 5.3 | Non-toxic | 0 | Non-toxic | Non-toxic | Non-toxic | 0 | Non-toxic | 0 | 0 | 25
14 | Cc1ccc(Oc2ccc(/C=N/NC(=O)CSc3nc4ccccc4s3)cc2)cc1 | Non-toxic | 5.7 | – | – | – | – | – | – | – | – | – | –
15 | O=C(CSc1nc2ccccc2s1)N/N=C/c1ccc(Oc2ccc(Cl)cc2)cc1 | Non-toxic | 5.6 | Non-toxic | 0 | Non-toxic | Non-toxic | Non-toxic | 0 | Non-toxic | 0 | 25 | 75
16 | O=C(CSc1nc2ccccc2s1)N/N=C/c1ccc(Oc2ccc(Br)cc2)cc1 | Non-toxic | 5.7 | Non-toxic | 0 | Non-toxic | Non-toxic | Non-toxic | 50 | Non-toxic | 0 | 0 | 75
17 | O=C(CSc1nc2ccccc2s1)N/N=C/c1ccc(Oc2ccc(F)cc2)cc1 | Non-toxic | 5.5 | Non-toxic | 0 | Non-toxic | Non-toxic | Non-toxic | 25 | Non-toxic | 50 | 0 | 0
18 | Cc1cc(Oc2ccc(/C=N/NC(=O)CSc3nc4ccccc4s3)cc2)ccc1Cl | Non-toxic | 5.7 | Non-toxic | 0 | Non-toxic | Non-toxic | Non-toxic | 25 | Non-toxic | 0 | 0 | 25
19 | O=C(CSc1nc2ccccc2s1)N/N=C/c1ccc(Oc2ccc3ccccc3c2)cc1 | Non-toxic | 5.9 | Non-toxic | 0 | Non-toxic | Non-toxic | Non-toxic | 25 | Non-toxic | 0 | 0 | 0
20 | O=C(CSc1nc2ccccc2s1)N/N=C/c1ccc(Oc2ccc3c(c2)OCO3)cc1 | Non-toxic | 5.5 | – | – | – | – | – | – | – | – | – | –

— ChEMBL document CHEMBL3045994, “Design, synthesis, and anticonvulsant evaluation of some novel 1, 3 benzothiazol-2-yl hydrazones/acetohydrazones” (Med Chem Res, 2012)
